Test results from US20230020342A1, “METHOD FOR PRODUCING POLYOL-BASED ESTERS, IN PARTICULAR POLYGLYCEROL ESTERS, FROM HYDROXY CARBOXYLIC ACIDS” (IOI Oleo GmbH, priority 2019, published 2023).

Each substance was assayed on pancreatin (Panzytrat 40,000) (assay: Cleavage experiments with pancreatin in water, followed by acid number). Conditions: individual esters in pure form, 50° C.
Experimental: The pancreatin is used in the form of the commercially available product Panzytrat® 40,000 from the Allergan company. The whole mixture is stirred on a hot plate at 50° C.; the course of the reaction is determined and monitored by continuously recording the acid number over time.

| Substance | cleavage by pancreatin to free 3-hydroxybutyric acid (3-BHB-FS) |
| --- | --- |
| 3-hydroxybutyric acid di-diglycerol ester | cleaved by pancreatin to the free 3-hydroxybutyric acid |
| 3-hydroxybutyric acid tri-diglycerol ester | cleaved by pancreatin to the free 3-hydroxybutyric acid |
| 3-hydroxybutyric acid mono-diglycerol ester | cleaved by pancreatin to the free 3-hydroxybutyric acid |
